In paper PMC6354820 (Endocrinology, Diabetes & Metabolism, 2018):

Tests used:
[1] = molecular target: SUR1 (sulphonylurea receptor subunit of the pancreatic beta-cell KATP channel) (Mus musculus, UniProt B2RUS7); assay: standard whole-cell patch-clamp, block by a single concentration; format: cell-based; conditions: read-out: % inhibition at 20 μmol/L
[2] = molecular target: Kir6.2 (pore subunit of the pancreatic beta-cell KATP channel) (Mus musculus, UniProt Q61743); assay: inside-out patch-clamp, single-channel NPo concentration-effect; format: cell-based
Chain of Kir6.2 (pore subunit of the pancreatic beta-cell KATP channel) (Q61743 whole entry): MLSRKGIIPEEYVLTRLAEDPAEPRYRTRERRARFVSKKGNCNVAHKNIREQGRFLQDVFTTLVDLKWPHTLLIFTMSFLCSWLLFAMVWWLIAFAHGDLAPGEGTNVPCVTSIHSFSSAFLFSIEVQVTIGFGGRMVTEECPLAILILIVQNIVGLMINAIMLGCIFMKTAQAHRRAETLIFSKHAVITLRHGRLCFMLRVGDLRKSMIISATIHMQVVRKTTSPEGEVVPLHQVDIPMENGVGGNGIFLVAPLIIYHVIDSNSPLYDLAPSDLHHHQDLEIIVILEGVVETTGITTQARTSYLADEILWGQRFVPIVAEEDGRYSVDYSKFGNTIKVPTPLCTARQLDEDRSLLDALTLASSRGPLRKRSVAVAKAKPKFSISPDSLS
Chain of Kir6.2 (pore subunit of the pancreatic beta-cell KATP channel) (B2RUS7 1-1588 partner): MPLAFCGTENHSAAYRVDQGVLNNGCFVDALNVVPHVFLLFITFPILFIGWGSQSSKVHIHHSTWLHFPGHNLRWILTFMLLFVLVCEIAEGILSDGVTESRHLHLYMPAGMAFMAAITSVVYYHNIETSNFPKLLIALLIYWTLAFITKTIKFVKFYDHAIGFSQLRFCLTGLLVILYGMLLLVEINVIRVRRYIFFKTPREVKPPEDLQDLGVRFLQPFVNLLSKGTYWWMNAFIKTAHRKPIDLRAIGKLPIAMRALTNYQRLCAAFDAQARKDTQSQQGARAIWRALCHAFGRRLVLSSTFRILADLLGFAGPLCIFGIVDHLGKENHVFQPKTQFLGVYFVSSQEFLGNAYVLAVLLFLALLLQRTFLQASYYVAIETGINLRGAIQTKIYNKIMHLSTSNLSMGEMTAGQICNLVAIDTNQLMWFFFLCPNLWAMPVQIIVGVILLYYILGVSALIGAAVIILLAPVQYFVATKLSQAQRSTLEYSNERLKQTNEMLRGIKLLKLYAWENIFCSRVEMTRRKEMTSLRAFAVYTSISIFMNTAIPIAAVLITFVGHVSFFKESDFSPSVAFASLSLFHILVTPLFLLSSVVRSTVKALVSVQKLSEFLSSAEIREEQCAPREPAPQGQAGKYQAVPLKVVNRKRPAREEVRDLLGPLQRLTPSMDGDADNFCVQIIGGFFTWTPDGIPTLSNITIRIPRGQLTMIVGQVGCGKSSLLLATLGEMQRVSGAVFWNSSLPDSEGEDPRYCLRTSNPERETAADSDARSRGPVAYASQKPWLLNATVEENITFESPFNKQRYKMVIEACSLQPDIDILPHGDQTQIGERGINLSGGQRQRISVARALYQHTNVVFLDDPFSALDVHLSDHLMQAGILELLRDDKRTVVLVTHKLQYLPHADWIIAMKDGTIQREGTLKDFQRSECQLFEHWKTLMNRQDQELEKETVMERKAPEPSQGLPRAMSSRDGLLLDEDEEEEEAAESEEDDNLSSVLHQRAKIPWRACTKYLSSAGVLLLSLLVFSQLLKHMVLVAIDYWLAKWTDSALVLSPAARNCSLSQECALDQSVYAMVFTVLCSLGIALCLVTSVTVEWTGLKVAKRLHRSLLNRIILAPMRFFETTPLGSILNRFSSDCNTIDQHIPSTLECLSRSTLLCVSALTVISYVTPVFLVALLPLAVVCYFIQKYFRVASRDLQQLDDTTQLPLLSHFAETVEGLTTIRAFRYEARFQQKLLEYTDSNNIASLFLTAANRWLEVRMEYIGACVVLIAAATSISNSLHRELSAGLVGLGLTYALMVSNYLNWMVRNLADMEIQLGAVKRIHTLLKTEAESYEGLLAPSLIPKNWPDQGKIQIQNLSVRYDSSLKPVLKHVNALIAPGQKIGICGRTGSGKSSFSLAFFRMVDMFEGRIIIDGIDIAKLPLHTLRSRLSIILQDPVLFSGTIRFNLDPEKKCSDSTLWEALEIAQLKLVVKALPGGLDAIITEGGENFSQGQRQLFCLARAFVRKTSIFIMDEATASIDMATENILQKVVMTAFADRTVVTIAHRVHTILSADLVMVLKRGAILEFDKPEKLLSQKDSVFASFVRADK

Chain of SUR1 (sulphonylurea receptor subunit of the pancreatic beta-cell KATP channel) (B2RUS7 1-1588): as the sequence (B2RUS7 1-1588 partner) above
Chain of SUR1 (sulphonylurea receptor subunit of the pancreatic beta-cell KATP channel) (Q61743 whole entry partner): as the sequence (Q61743 whole entry) above

Row | Compound | inhibition at 20 µM [1] | IC50 [2]
1 | CCCCNC(=O)NS(=O)(=O)c1ccc(C)cc1 [Tb, tolbutamide] | 43 ± 3.3% | 
2 | CCC(C)(C)C(=O)O[C@H]1C[C@@H](C)C=C2C=C[C@H](C)[C@H](CC[C@@H]3C[C@@H](O)CC(=O)O3)[C@H]21 [Sim, simvastatin] |  | 26 nM
